Assays:
Format in all cases: in vivo
[1] = tested on: smallflower flatsedge (Cyperus difformis); assay: Test C flooded paddy test; conditions: for Flatsedge plant response rating: Flooded Paddy, scale 0 to 100, 0 no effect, 100 complete control; for Plant response rating, Flatsedge: flooded paddy test, scale 0 to 100 (0 no effect, 100 complete control)
How it was run: (§1)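 Visual ratings (0 = no effect, 100 = complete control) were made 12–14 days after treatment, relative to greenhouse controls. Plants in the flooded paddy test were rice, smallflower flatsedge, duck salad and barnyardgrass, treated at the 2-leaf stage.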

[2] = tested on: duck salad (Heteranthera limosa); assay: Test C flooded paddy test; conditions: for Ducksalad plant response rating: Flooded Paddy, scale 0 to 100, 0 no effect, 100 complete control; for Plant response rating, Ducksalad: flooded paddy test, scale 0 to 100 (0 no effect, 100 complete control)
How it was run: as §1

[3] = tested on: barnyardgrass (Echinochloa crus-galli); assay: Test C flooded paddy test; conditions: for Barnyardgrass plant response rating: Flooded Paddy, scale 0 to 100, 0 no effect, 100 complete control; for Plant response rating, Barnyardgrass: flooded paddy test, scale 0 to 100 (0 no effect, 100 complete control)
How it was run: as §1

[4] = tested on: velvetleaf (Abutilon theophrasti); assay: Test C preemergence
How it was run: (§2)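 Pre- and postemergence treatments used a non-phytotoxic solvent/surfactant formulation; post-treated plants measured 2 to 18 cm. Greenhouse hold 12–14 d; % control estimated visually relative to controls.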

corn (Zea mays) = assay: Test C preemergence
How it was run: as §2

[5] = tested on: woolly cupgrass (Eriochloa villosa); assay: Test C preemergence
How it was run: as §2

[6] = tested on: morningglory (Ipomoea hederacea); assay: Test C preemergence
How it was run: as §2

[7] = tested on: giant foxtail (Setaria faberii); assay: Test C preemergence
How it was run: as §2

[8] = tested on: common ragweed (Ambrosia elatior); assay: Test C preemergence
How it was run: as §2

[9] = tested on: bermudagrass (Cynodon dactylon); assay: Test C preemergence
How it was run: as §2

[10] = tested on: lambsquarters (Chenopodium album); assay: Test C preemergence
How it was run: as §2

[11] = tested on: goosegrass (Eleusine indica); assay: Test C preemergence
How it was run: as §2

[12] = tested on: yellow nutsedge (Cyperus esculentus); assay: Test C preemergence
How it was run: as §2

[13] = tested on: johnsongrass (Sorghum halepense); assay: Test C preemergence
How it was run: as §2

kochia (Kochia scoparia) = assay: Test C preemergence
How it was run: as §2

[14] = tested on: cocklebur (Xanthium strumarium); assay: Test C preemergence
How it was run: as §2

Nightshade = assay: Test C preemergence
soybean (Glycine max) = assay: Test C preemergence
How it was run: as §2

[15] = tested on: Surinam grass (Brachiaria decumbens); assay: Test C preemergence
How it was run: as §2

[16] = tested on: pigweed (Amaranthus retroflexus); assay: Test C preemergence
How it was run: as §2

[17] = tested on: crabgrass (Digitaria sanguinalis); assay: Test C preemergence
How it was run: as §2

Sunflower = assay: Test C preemergence
[18] = Preemergence, Rate 500 g/ha, scale 0 to 100
[19] = Rate 62 g/ha, scale 0 to 100, 0 no effect, 100 complete control
[20] = preemergence, Rate 250 g/ha, visual evaluation after 12 to 14 days
[21] = preemergence, Rate 125 g/ha, scale 0 to 100, 0 no effect, 100 complete control

O=C1C(n2ccc(C3CCC3)n2)SCN1c1cccc(OC(F)(F)F)c1 (stereo not drawn) [Compound 38]
90: Ducksalad plant response rating ([2]; Rate 250 g/ha) | Plant response rating, Ducksalad ([2]; Rate 125 g/ha) | Plant response rating, Cupgrass, Woolly [5, 18] | Plant response rating, Bermudagrass [9, 21] | Plant response rating, Lambsquarters [10, 19] | Plant response rating, Goosegrass [11, 21] | Plant response rating, Johnsongrass [13, 18] | Plant response rating (0 to 100), Johnsongrass [13, 20] | Plant response rating (0 to 100), Kochia (kochia (Kochia scoparia); [20]) | Plant response rating, Nightshade (Nightshade; Rate 500 g/ha, scale 0 to 100) | Plant response rating, Surinam grass [15, 18] | Plant response rating, Crabgrass [17, 19]
40: Plant response rating (0 to 100), Ragweed, Common [8, 20] | Plant response rating, Johnsongrass [13, 19]
70: Plant response rating, Nutsedge [12, 18] | Plant response rating, Kochia (kochia (Kochia scoparia); [21])
0: Plant response rating, Velvetleaf [4, 19] | Plant response rating, Velvetleaf [4, 21] | Plant response rating, Corn (corn (Zea mays); [18]) | Plant response rating, Corn (corn (Zea mays); [19]) | Plant response rating (0 to 100), Corn (corn (Zea mays); [20]) | Plant response rating, Corn (corn (Zea mays); [21]) | Plant response rating, Cupgrass, Woolly [5, 19] | Plant response rating (0 to 100), Cupgrass, Woolly [5, 20] | Plant response rating, Cupgrass, Woolly [5, 21] | Plant response rating, Morningglory [6, 18] | Plant response rating (0 to 100), Morningglory [6, 20] | Plant response rating, Morningglory [6, 21] | Plant response rating, Foxtail, Giant [7, 21] | Plant response rating, Ragweed, Common [8, 19] | Plant response rating, Nutsedge [12, 19] | Plant response rating (0 to 100), Nutsedge [12, 20] | Plant response rating, Nutsedge [12, 21] | Plant response rating, Cocklebur [14, 19] | Plant response rating, Cocklebur [14, 21] | Plant response rating, Nightshade (Nightshade; [19]) | Plant response rating, Nightshade (Nightshade; Rate 125 g/ha, scale 0 to 100, 0 no effect, 100 complete control) | Plant response rating, Soybean (soybean (Glycine max); [18]) | Plant response rating, Soybean (soybean (Glycine max); [19]) | Plant response rating (0 to 100), Soybean (soybean (Glycine max); [20]) | Plant response rating, Soybean (soybean (Glycine max); [21]) | Plant response rating, Surinam grass [15, 19] | Plant response rating (0 to 100), Surinam grass [15, 20] | Plant response rating, Surinam grass [15, 21] | Plant response rating, Pigweed [16, 19] | Plant response rating (0 to 100), Pigweed [16, 20] | Plant response rating, Pigweed [16, 21] | Plant response rating, Sunflower (Sunflower; [19])
60: Plant response rating, Bermudagrass [9, 19] | Plant response rating, Cocklebur [14, 18] | Plant response rating, Sunflower (Sunflower; Rate 500 g/ha, scale 0 to 100)
20: Plant response rating, Velvetleaf [4, 18] | Plant response rating (0 to 100), Velvetleaf [4, 20] | Plant response rating, Ragweed, Common [8, 21] | Plant response rating (0 to 100), Cocklebur [14, 20]
30: Plant response rating, Kochia (kochia (Kochia scoparia); [19]) | Plant response rating, Pigweed [16, 18]
80: Ducksalad plant response rating ([2]; Rate 500 g/ha) | Plant response rating, Foxtail, Giant [7, 19] | Plant response rating, Goosegrass [11, 19]
100: Flatsedge plant response rating ([1]; Rate 250 g/ha) | Flatsedge plant response rating ([1]; Rate 500 g/ha) | Plant response rating, Flatsedge ([1]; Rate 62 g/ha) | Plant response rating, Flatsedge ([1]; Rate 125 g/ha) | Barnyardgrass plant response rating ([3]; Rate 250 g/ha) | Barnyardgrass plant response rating ([3]; Rate 500 g/ha) | Plant response rating, Barnyardgrass ([3]; Rate 62 g/ha) | Plant response rating, Barnyardgrass ([3]; Rate 125 g/ha) | Plant response rating, Foxtail, Giant [7, 18] | Plant response rating (0 to 100), Foxtail, Giant [7, 20] | Plant response rating, Ragweed, Common [8, 18] | Plant response rating, Bermudagrass [9, 18] | Plant response rating (0 to 100 where 0 is no effect and 100 is complete control), Bermudagrass [9, 20] | Plant response rating, Lambsquarters [10, 18] | Plant response rating (0 to 100), Lambsquarters [10, 20] | Plant response rating, Lambsquarters [10, 21] | Plant response rating, Goosegrass [11, 18] | Plant response rating (0 to 100), Goosegrass [11, 20] | Plant response rating, Kochia (kochia (Kochia scoparia); [18]) | Plant response rating, Crabgrass [17, 18] | Plant response rating (0 to 100), Crabgrass [17, 20] | Plant response rating, Crabgrass [17, 21]
50: Plant response rating, Ducksalad ([2]; Rate 62 g/ha) | Plant response rating, Johnsongrass [13, 21]

From patent US7138361B2, “Herbicidal heterocycles” (E. I. du Pont de Nemours and Company, priority 2000, dated 2006)
